Columns and labels:
Enkephalinase = target: T1, Enkephalinase (Rattus norvegicus, UniProt P07861); test: Enkephalinase inhibition, fluorometric enzyme assay; type: biochemical; conditions: enzyme partially purified from rat kidney; 50mM HEPES buffer (pH 7.4); 12 µM substrate dansyl-D-AlaGly(p-nitro)PheGly; 25°C
T1 construct: The enzyme is extracted from the microvilli fraction by using Triton X-100; from tissue; host or cells: rat kidney (microvilli fraction)
T1 sequence (P07861 1-750): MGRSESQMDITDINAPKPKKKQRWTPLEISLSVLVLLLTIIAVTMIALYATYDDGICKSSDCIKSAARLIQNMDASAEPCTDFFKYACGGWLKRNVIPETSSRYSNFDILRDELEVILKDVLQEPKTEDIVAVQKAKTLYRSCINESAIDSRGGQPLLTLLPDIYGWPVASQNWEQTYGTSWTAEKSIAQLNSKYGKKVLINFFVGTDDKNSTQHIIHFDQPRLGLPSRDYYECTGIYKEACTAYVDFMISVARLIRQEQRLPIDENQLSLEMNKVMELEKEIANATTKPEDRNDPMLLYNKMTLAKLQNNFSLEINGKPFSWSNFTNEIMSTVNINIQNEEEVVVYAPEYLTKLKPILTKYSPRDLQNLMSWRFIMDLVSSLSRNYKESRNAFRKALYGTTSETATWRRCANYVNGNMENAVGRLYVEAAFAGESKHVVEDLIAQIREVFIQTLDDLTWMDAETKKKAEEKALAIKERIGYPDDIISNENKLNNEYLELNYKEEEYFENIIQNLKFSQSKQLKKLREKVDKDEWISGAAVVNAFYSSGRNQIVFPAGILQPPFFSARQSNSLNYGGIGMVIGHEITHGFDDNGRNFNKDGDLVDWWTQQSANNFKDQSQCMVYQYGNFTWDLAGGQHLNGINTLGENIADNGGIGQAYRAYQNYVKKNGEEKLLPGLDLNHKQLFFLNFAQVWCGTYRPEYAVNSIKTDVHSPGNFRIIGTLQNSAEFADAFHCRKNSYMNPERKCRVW
Description: Enkephalinase is partially purified from rat kidney. The enzyme is extracted from the microvilli fraction by using Triton X-100 according to the method of Malfroy and Schwartz [J.Biol.Chem. 259, 14365-14370 (1984)] or by using a proteolytic treatment according to the method of Almenoff and Orlowski [Biochem. 22, 590-599 (1983)]. The enzyme is further purified by anion exchange chromatography (Mono Q™ column, Pharmacia) using a Pharmacia FPLC system. The enzyme activity may be measured by the fluorometric methods of Florentin et al. [Anal.Biochem. 141, 62-69 (1984)] or of Almenoff and Orlowski [J.Neurochemistry 42, 151-157 (1984)]. The enzyme is assayed in 50mM HEPES buffer (pH 7.4) in a 3.0 mL reaction volume containing 12 µM of the substrate dansyl-D-AlaGly(p-nitro)PheGly (Km=40µM) at 25°C. The substrate (and inhibitor) is added from a concentrated stock solution in DMSO (up to 0.1 mL DMSO final volume). The enzyme in a small volume (approximately 0.1 µg of FPLC purified protein) is added to initiate the reaction and the rate of fluorescense increase is recorded continuously using a fluorometer (excitation at 339nm, emission at 562nm).

ACE = ACE (Homo sapiens, UniProt P12821); test: ACE inhibition, spectrophotometric enzyme assay; type: biochemical; conditions: spectrophotometric substrate of Holmquist et al.; buffer system of Ryan
Description: The enzymatic activity of ACE is monitored using the spectrophotometric substrate described by Holmquist et al. [Anal.Biochem. 95, 540-548 (1979)] and the buffer system described by Ryan [Methods of Enzymatic Analysis, 3rd ed., H. U. Bergmeyer, editor; vol. V, Verlag Chemie, Weinheim, 1983, pp. 20-34].

ACE, sequence (P12821 30-1306, species assumed): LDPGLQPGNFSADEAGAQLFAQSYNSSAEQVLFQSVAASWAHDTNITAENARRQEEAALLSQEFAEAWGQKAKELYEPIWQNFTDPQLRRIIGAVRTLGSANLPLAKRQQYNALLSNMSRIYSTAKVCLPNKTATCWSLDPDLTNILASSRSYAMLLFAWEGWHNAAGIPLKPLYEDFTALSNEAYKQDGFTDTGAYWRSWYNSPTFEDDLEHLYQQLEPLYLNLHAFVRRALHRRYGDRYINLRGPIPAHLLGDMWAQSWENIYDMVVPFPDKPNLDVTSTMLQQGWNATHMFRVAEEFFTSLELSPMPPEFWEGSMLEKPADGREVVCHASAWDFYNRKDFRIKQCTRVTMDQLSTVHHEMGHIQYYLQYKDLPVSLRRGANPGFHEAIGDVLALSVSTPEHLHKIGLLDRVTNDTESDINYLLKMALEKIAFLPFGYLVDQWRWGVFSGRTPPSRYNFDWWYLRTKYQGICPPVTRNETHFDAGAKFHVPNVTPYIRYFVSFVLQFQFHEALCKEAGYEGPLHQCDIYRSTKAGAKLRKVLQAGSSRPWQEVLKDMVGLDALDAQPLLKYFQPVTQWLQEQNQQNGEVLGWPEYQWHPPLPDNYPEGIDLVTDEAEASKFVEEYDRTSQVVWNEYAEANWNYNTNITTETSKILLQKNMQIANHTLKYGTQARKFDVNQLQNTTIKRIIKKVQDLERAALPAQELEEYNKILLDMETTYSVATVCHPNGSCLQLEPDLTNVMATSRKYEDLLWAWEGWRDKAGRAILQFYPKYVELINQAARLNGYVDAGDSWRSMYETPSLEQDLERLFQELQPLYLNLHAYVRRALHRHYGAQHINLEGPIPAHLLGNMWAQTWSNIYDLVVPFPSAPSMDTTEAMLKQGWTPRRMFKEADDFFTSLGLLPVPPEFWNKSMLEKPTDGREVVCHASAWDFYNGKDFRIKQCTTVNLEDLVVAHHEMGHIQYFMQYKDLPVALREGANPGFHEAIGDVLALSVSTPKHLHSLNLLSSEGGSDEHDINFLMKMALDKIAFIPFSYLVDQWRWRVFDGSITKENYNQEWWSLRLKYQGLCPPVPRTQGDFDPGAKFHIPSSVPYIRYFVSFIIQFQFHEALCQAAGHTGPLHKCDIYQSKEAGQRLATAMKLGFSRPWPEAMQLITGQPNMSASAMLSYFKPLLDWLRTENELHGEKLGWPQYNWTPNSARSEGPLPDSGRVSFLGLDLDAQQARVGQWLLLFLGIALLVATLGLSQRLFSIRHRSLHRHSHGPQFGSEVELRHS

Compound | Ki (Enkephalinase) | Ki (ACE)
O=C(O)CC1(C(=O)N[C@H]2Cc3ccccc3[C@H]3CCC[C@@H](C(=O)O)N3C2=O)Cc2ccccc2C1 (relative stereo) [102,353, [4S-[4α, 7α(R*), 12bβ]]-7-[(2-Carboxymethyl-indan-2-yl)carbonylamino]-1,2,3,4,6,7,8,12b-octahydro-6-oxopyrido[2,1-a][2]benzazepine-4-carboxylic acid] | < 0.2 nM | < 104 nM
O=C(O)CC1(C(=O)N[C@H]2Cc3ccccc3[C@H]3CCC[C@@H](C(=O)O)N3C2=O)CCCC1 (relative stereo) [100,137, [4S-[4α, 7α(R*), 12bβ]]-7-[(1-Carboxymethyl-cyclopent-1-yl)carbonylamino]-1,2,3,4,6,7,8,12b-octahydro-6-oxopyrido[2,1-a][2]benzazepine-4-carboxylic acid] | 0.4 nM | –

— patent EP0534396B1, “2-Substituted indane-2-carboxyalkyl derivatives useful as inhibitors of enkephalinase and ace” (MERRELL PHARMACEUTICALS INC., priority 1991, dated 1993)
